Source: patent US9526796B2, “Peptide-based in vivo siRNA delivery system” (priority 2010, dated 2016)
Non-standard residues stand in square brackets, D forms with d. No end group written: not given here. *: point of attachment. Nle = CCCC[C@H](N)C(=O)O; Cbz = O=C(OCc1ccccc1)*

Tested on: ApoB
Test: Knockdown of endogenous serum ApoB in mice after co-injection of masked melittin delivery peptide and ApoB siRNA-cholesterol conjugate
Format: in vivo
Protocol: RNAi polynucleotide conjugates and masked melittin peptides were synthesized as described above. Six to eight week old mice (strain C57BL/6 or ICR, ˜18-20 g each) were obtained from Harlan Sprague Dawley (Indianapolis Ind.). Mice were housed at least 2 days prior to injection. Feeding was performed ad libitum with Harlan Teklad Rodent Diet (Harlan, Madison Wis.). Mice were injected with 0.2 mL solution of delivery peptide and 0.2 mL siRNA conjugates into the tail vein. For simultaneous injection of delivery peptide and siRNA, the siRNA-conjugate was added to modified peptide prior to injection and the entire amount was injected. The composition was soluble and nonaggregating in physiological conditions. Solutions were injected by infusion into the tail vein.
Mice were fasted for 4 h (16 h for rats) before serum collection by submandibular bleeding. For rats blood was collected from the jugular vein. Serum ApoB protein levels were determined by standard sandwich ELISA methods. Briefly, a polyclonal goat anti-mouse ApoB antibody and a rabbit anti-mouse ApoB antibody (Biodesign International) were used as capture and detection antibodies respectively. An HRP-conjugated goat anti-rabbit IgG antibody (Sigma) was applied afterwards to bind the ApoB/antibody complex. Absorbance of tetramethyl-benzidine (TMB, Sigma) colorimetric development was then measured by a Tecan Safire2 (Austria, Europe) microplate reader at 450 nm.
Melittin was reversibly modified with CDM-NAG as described above. The indicated amount of melittin was then co-injected with the 200 μg ApoB siRNA-cholesterol conjugate. Effect on ApoB levels were determined as described above.
Melittin was reversibly modified with CDM-NAG as described above. The indicated amount of melittin was then co-injected with 50 μg ApoB siRNA-cholesterol conjugate. Effect on ApoB levels were determined as described above.
Melittin was reversibly modified with CDM-NAG (5×) as described above. The indicated amount of melittin was then co-injected with the indicated amount of ApoB siRNA-cholesterol conjugate. Effect on ApoB levels were determined as described above.
Melittin was reversibly modified with the indicated amount of CDM-NAG as described above. 50 μg melittin was then co-injected with the 100 μg ApoB siRNA-cholesterol conjugate. Effect on ApoB levels were determined as described above.
Melittin peptides having the indicated sequence were reversibly modified with CDM-NAG (5×) as described above. The indicated amount of melittin was then co-injected with the indicated amount of ApoB siRNA-cholesterol conjugate. Effect on ApoB levels were determined as described above.
Melittin peptides containing the indicated PEG amino terminal modifications were synthesized as described above. The PEG amino terminal modified melittin peptides were then reversibly modified with 5×CDM-NAG as described above. The indicated amount of Melittin was then co-injected with the 100-200 μg ApoB siRNA-cholesterol conjugate. Effect on ApoB levels were determined as described above. Addition of PEG less than 5 kDa in size decreased toxicity of the melittin peptides.

[1] = CDM-NAG (5×), 100 μg peptide per mouse, 100 μg siRNA per mouse
[2] = CDM-NAG (5×), 100 μg peptide per mouse, 50 μg siRNA per mouse
[3] = CDM-NAG (5×), 400 μg peptide per mouse, 100 μg siRNA per mouse
[4] = CDM-NAG (5×), 80 μg peptide per mouse, 100 μg siRNA per mouse

Substance: G1L, S18C (Seq ID 25): melittin peptide derivative (LIGAILKVLATGLPTLICWIKNKRKQ; melittin-like peptide derive from Apis florea)
- percent knockdown [1]: 93%

Substance: CBZ-Mel (Seq ID 108): melittin peptide derivative (Cbz-GIGAILKVLATGLPTLISWIKNKRKQ)
- percent knockdown (CDM-NAG (5×), 100 μg peptide per mouse, 80 μg siRNA per mouse): 96%

Substance: G1L Mel-KLKC (Seq ID 65): melittin peptide derivative (LIGAILKVLATGLPTLISWIKNKRKQKLKC; C-terminal KLKC extension; melittin-like peptide derive from Apis florea)
- percent knockdown [1]: 97%

Substance: QQRKRKIWSILAALGTTLVKLVAGIC-NH2 [Seq ID 95]
- percent knockdown (CDM-NAG (5×), siRNA 20 mg/kg): 91%

Substance: QKRKNKIWSILTPLGTALVKLIAGIG-NH2 [Seq ID 96]
- percent knockdown (CDM-NAG (5×), siRNA 20 mg/kg): 70%

Substance: G1F dMel (Seq ID 4): melittin peptide derivative ([dF][dI]G[dA][dI][dL][dK][dV][dL][dA][dT]G[dL][dP][dT][dL][dI][dS][dW][dI][dK][dN][dK][dR][dK][dQ])
- percent knockdown [2]: 94%

Substance: G1L, K7R (Seq ID 19): melittin peptide derivative (LIGAILRVLATGLPTLISWIKNKRKQ; melittin-like peptide derive from Apis florea)
- percent knockdown [1]: 92%

Substance: G1Nle (Seq ID 8): melittin peptide derivative ([Nle]IGAILKVLATGLPTLISWIKNKRKQ)
- percent knockdown [1]: 96%

Substance: G1L, I2Nle, I5Nle, I17Nle, I20Nle (Seq ID 44): melittin peptide derivative (L[Nle]GA[Nle]LKVLATGLPTL[Nle]SW[Nle]KNKRKQ)
- percent knockdown [1]: 99%

Substance: C-dMel G1Nle (Seq ID 52): melittin peptide derivative (C[Nle]IGAILKVLATGLPTLISWIKNKRKQ; also: D-amino acids (dMel), positions not given here)
- percent knockdown [1]: 84%

Substance: Apis Mellifera (Big Honey Bee; Seq ID 50): Apis mellifera melittin
- percent knockdown [3]: 72%

Substance: G1L, G12L (Seq ID 22): melittin peptide derivative (LIGAILKVLATLLPTLISWIKNKRKQ; melittin-like peptide derive from Apis florea)
- percent knockdown [3]: 93%

Substance: G1Y, K23A (Seq ID 29): melittin peptide derivative (YIGAILKVLATGLPTLISWIKNARKQ; melittin-like peptide derive from Apis florea)
- percent knockdown [1]: 42%

Substance: QQRKRKIWSILAALGTTLVKLVAGIC-NH2 (also: retro-inverso, methoxy, position not given here) [Seq ID 95 Retroinverso Methoxy]
- percent knockdown (CDM-NAG (5×), amount in column 'siRNA' 30 mg/kg): 39%

Substance: G12W (Seq ID 14): melittin peptide derivative (GIGAILKVLATWLPTLISWIKNKRKQ; melittin-like peptide derive from Apis florea)
- percent knockdown [4]: 51%

Substance: G1A (Seq ID 2): melittin peptide derivative (AIGAILKVLATGLPTLISWIKNKRKQ; melittin-like peptide derive from Apis florea)
- percent knockdown [1]: 88%

Substance: G1L d(1-11)-1(12-26) (Seq ID 109): melittin peptide derivative ([dL][dI]G[dA][dI][dL][dK][dV][dL][dA][dT]GLPTLISWIKNKRKQ)
- percent knockdown [1]: 70%

Substance: QQKKKKIWSILAPLGTTLVKLVAGIC-NH2 [Seq ID 93]
- percent knockdown (CDM-NAG (5×), siRNA 20 mg/kg): 70%

Substance: G1Nle Mel-C (Seq ID 64): melittin peptide derivative ([Nle]IGAILKVLATGLPTLISWIKNKRKQC)
- percent knockdown (CDM-NAG (5×), 400 μg peptide per mouse, 50 μg siRNA per mouse): 89%

Substance: G1L, K7S (Seq ID 18): melittin peptide derivative (LIGAILSVLATGLPTLISWIKNKRKQ; melittin-like peptide derive from Apis florea)
- percent knockdown [1]: 89%

Substance: G1Y dMel (Seq ID 11): G1Y melittin peptide having D-form amino acids ([dY][dI]G[dA][dI][dL][dK][dV][dL][dA][dT]G[dL][dP][dT][dL][dI][dS][dW][dI][dK][dN][dK][dR][dK][dQ])
- percent knockdown [2]: 95%

Substance: C-Mel G1L (Seq ID 51): melittin peptide derivative (CLIGAILKVLATGLPTLISWIKNKRKQ; N-terminal cysteine; melittin-like peptide derive from Apis florea)
- percent knockdown [1]: 89%

Substance: G1Y, K7A, K21A (Seq ID 35): melittin peptide derivative (YIGAILAVLATGLPTLISWIANKRKQ; melittin-like peptide derive from Apis florea)
- percent knockdown [1]: 14%

Substance: G1Y-Mel-NH2 (Seq ID 110): melittin peptide derivative (YIGAILKVLATGLPTLISWIKNKRKQ-NH2)
- percent knockdown (CDM-NAG (5×), 200 μg peptide per mouse, 200 μg siRNA per mouse): 94%

Substance: G1H (Seq ID 5): melittin peptide derivative (HIGAILKVLATGLPTLISWIKNKRKQ; melittin-like peptide derive from Apis florea)
- percent knockdown [3]: 78%

Substance: G1L retroMel-KLK-Stearoyl (Seq ID 75): melittin peptide derivative (KLKQKRKNKIWSILTPLGTALVKLIAGIL; also: stearoyl, site not given here)
- percent knockdown [3]: 50%

Substance: CKLK-Mel G1L (Seq ID 57): melittin peptide derivative; in Table 9 also with amino terminal NAG-(PEG)2/4/8 or PEG (5k) (CKLKLIGAILKVLATGLPTLISWIKNKRKQ; N-terminal CKLK extension; melittin-like peptide derive from Apis florea)
- percent knockdown (5× CDM-NAG, amino terminal NAG-(PEG)2, 25 μg peptide, 100 μg siRNA): 15%
- percent knockdown (5× CDM-NAG, amino terminal NAG-(PEG)2, 50 μg peptide, 100 μg siRNA): 83%
- percent knockdown (5× CDM-NAG, amino terminal NAG-(PEG)4, 25 μg peptide, 100 μg siRNA): 58%
- percent knockdown (5× CDM-NAG, amino terminal NAG-(PEG)4, 50 μg peptide, 100 μg siRNA): 81%
- percent knockdown (5× CDM-NAG, amino terminal NAG-(PEG)4, 100 μg peptide, 100 μg siRNA): 94%
- percent knockdown (5× CDM-NAG, amino terminal NAG-(PEG)8, 25 μg peptide, 100 μg siRNA): 58%
- percent knockdown (5× CDM-NAG, amino terminal NAG-(PEG)8, 50 μg peptide, 100 μg siRNA): 89%
- percent knockdown (5× CDM-NAG, amino terminal NAG-(PEG)8, 100 μg peptide, 100 μg siRNA): 96%
- percent knockdown (5× CDM-NAG, amino terminal PEG (5k), 100 μg peptide, 100 μg siRNA): 90%
- percent knockdown (5× CDM-NAG, no PEG modification, 150 μg peptide, 100 μg siRNA): 91%
- percent knockdown (5× CDM-NAG, no PEG modification, 400 μg peptide, 100 μg siRNA): 97%
- percent knockdown (CDM-NAG (5×), 150 μg peptide per mouse, 100 μg siRNA per mouse): 91%

Substance: dimethyl-dMel I2L, I5L, T11C, I17L, I20L dMel (Seq ID 46): melittin peptide derivative (dimethyl-GLGALLKVLACGLPTLLSWLKNKRKQ; not fully specified (some residues); also: D-amino acids, positions not given here)
- percent knockdown [1]: 87%

Substance: G1V (Seq ID 9): melittin peptide derivative (VIGAILKVLATGLPTLISWIKNKRKQ; melittin-like peptide derive from Apis florea)
- percent knockdown [1]: 91%

Substance: CKLK-dMel G1Nle (Seq ID 112): melittin peptide derivative (CKLK[Nle]IGAILKVLATGLPTLISWIKNKRKQ; also: D-amino acids (dMel), positions not given here)
- percent knockdown (CDM-NAG (5×), 200 μg peptide per mouse, 100 μg siRNA per mouse): 84%

Substance: G1Y, K7N (Seq ID 16): melittin peptide derivative (YIGAILNVLATGLPTLISWIKNKRKQ; melittin-like peptide derive from Apis florea)
- percent knockdown [4]: 32%
